From PubChem BioAssay (NCI)
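Following 48 hours of exposure in 96-well plates, responses at five concentrations were used to interpolate endpoints linearly. GI50 is the concentration that inhibits growth by half. TGI is the concentration that stops growth completely.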

What was measured:
Assay in all cases: NCI tumour cell line growth inhibition, 48 h
[1] = tested on: HCT-15 colon
[2] = tested on: K-562 leukemia
[3] = tested on: MALME-3M melanoma
[4] = tested on: NCI-H460 lung
[5] = tested on: SF-295 CNS
[6] = tested on: DU-145 prostate
[7] = tested on: M14 melanoma
[8] = tested on: NCI-H522 lung
[9] = tested on: NCI/ADR-RES ovarian
[10] = tested on: UO-31 renal

Row | SMILES | TGI [1] [µM] | TGI [2] [µM] | TGI [3] [µM] | TGI [4] [µM] | TGI [5] [µM] | GI50 [6] [µM] | TGI [6] [µM] | GI50 [1] [µM] | GI50 [2] [µM] | GI50 [7] [µM] | TGI [7] [µM] | GI50 [8] [µM] | TGI [8] [µM] | GI50 [9] [µM] | TGI [9] [µM] | GI50 [5] [µM] | GI50 [10] [µM] | TGI [10] [µM] | GI50 [3] [µM] | GI50 [4] [µM]
1 | CCC12CCCC(=O)N1C(CO)C(c1ccccc1)O2 (centres undefined) | > 100 | > 100 | > 100 | > 100 | > 100 | – | – | – | – | – | – | – | – | – | – | – | – | – | – | –
2 | CO/N=C(\C)c1ccc(Nc2cc(-c3ccccc3)nc3c(O)cccc23)cc1 | 32.5 | 60.4 | – | – | 27.9 | 14.1 | 32 | 16.2 | 11.6 | 14.6 | 29.6 | 20.6 | 62.1 | 14.5 | 30.8 | 12.7 | 19.6 | 42.5 | – | –
3 | CC(=O)OCC1OC(n2ccc(=O)[nH]c2=O)C(OC(C)=O)C1OC(C)=O (centres undefined) | > 100 | – | > 100 | > 100 | > 100 | > 100 | > 100 | > 100 | – | > 100 | > 100 | > 100 | > 100 | > 100 | > 100 | > 100 | > 100 | > 100 | > 100 | > 100
4 | CC(C)NC(=O)OCCS(=O)c1c(Cl)c(Cl)nn1C (centres undefined) | 43.8 | > 100 | – | > 100 | > 100 | – | > 100 | – | – | – | 39.4 | – | 41.1 | – | > 100 | – | – | > 100 | – | –
5 | CCCCCCCCCc1cc(=O)c2ccc(O)cc2o1 | – | > 100 | > 100 | > 100 | > 100 | – | – | – | – | – | > 100 | – | > 100 | – | – | – | – | > 100 | – | –
6 | COc1cc([C@@H]2c3cc4c(cc3[C@@H](NC(=O)c3ccccc3)C3COC(=O)[C@@H]32)OCO4)cc(OC)c1O (some centres undefined) | > 100 | 33.8 | 26.6 | 15.2 | > 100 | – | – | – | – | – | 24.8 | – | 26.2 | – | – | – | – | 23.5 | – | –
7 | CC1=C(O)C(=O)C2C(=O)C1C(C)C2c1ccc(Cl)cc1 (centres undefined) | > 100 | > 100 | > 100 | – | > 100 | – | – | – | – | – | > 100 | – | > 100 | – | – | – | – | > 100 | – | –
8 | COc1c(N2CCN(CN3C(=O)C(=Nc4ccc(S(=O)(=O)Nc5ncccn5)cc4)c4ccccc43)C(C)C2)c(F)cc2c(=O)c(C(=O)O)cn(C3CC3)c12 (centres undefined) | > 50 | > 50 | – | > 50 | > 50 | 11.2 | 35.2 | 20.7 | 11.9 | > 50 | > 50 | > 50 | > 50 | 23.2 | > 50 | > 50 | 40.1 | > 50 | – | 22.4
9 | NNC(=O)CCC(=O)NC1C2CC3CC(C2)CC1C3 (centres undefined) | > 100 | > 100 | > 100 | > 100 | > 100 | – | – | – | – | – | > 100 | – | > 100 | – | – | – | – | > 100 | – | –
10 | CCCCCCCCCCCC[n+]1ccc(CCCCCCCCC)cc1 | – | – | – | – | – | 1.37 | 2.75 | – | – | – | – | 0.695 | 2.19 | 1.86 | 3.62 | – | 1.27 | 2.59 | – | –
11 | N#CC(C(=O)C(=O)NCCCNC(=O)C(=O)C(C#N)c1ccccc1)c1ccccc1 (centres undefined) | > 100 | > 100 | > 100 | > 100 | > 100 | – | – | – | – | – | > 100 | – | > 100 | – | – | – | – | > 100 | – | –
12 | COc1ccc(NC(=O)c2cc(OC)c(OC)c(OC)c2)cc1 | > 100 | > 100 | 97.7 | > 100 | > 100 | – | – | – | – | – | > 100 | – | > 87.4 | – | – | – | – | > 100 | – | –
13 | COc1cccc(C(=O)C2C(=O)N(C)CCc3ccccc32)c1OC (centres undefined) | > 100 | > 100 | > 100 | > 100 | – | – | – | – | – | – | > 100 | – | > 100 | – | – | – | – | > 100 | – | –
14 | CSc1nc2c(nc(N)n2C2OCC(O)C(O)C2O)c(=O)n1C (centres undefined) | – | > 100 | > 100 | > 100 | > 100 | – | – | – | – | – | > 100 | – | > 100 | – | – | – | – | > 100 | – | –
15 | CC(=O)Oc1ccc(O)c(O)c1C/C=C(\C)CC/C=C(\C)CC/C=C(\C)CCC=C(C)C | – | – | 0.782 | 1.31 | 4.27 | – | – | – | – | – | 4.98 | – | 6.84 | – | – | – | – | 2.74 | – | –
16 | NC(C(=O)[O-])C(=O)[O-].NC1CCCCC1N.[Pt+4] | > 100 | > 100 | 2.92 | 14.7 | 32.5 | – | – | 4.41 | 5.8 | 20.2 | > 100 | – | – | 4.41 | > 100 | 2.27 | 52.7 | > 100 | 0.294 | 2.29
17 | COc1cc(CNc2ccc(C(C)C)cc2)cc(OC)c1OC | 31.2 | 41.7 | 45.6 | 26.5 | – | – | – | – | – | – | – | 11.1 | 24 | – | – | – | – | 45.3 | – | –
18 | OCCCCCCOc1ccc(-c2cc(-c3ccccn3)nc(-c3ccccn3)c2)cc1 | > 33.1 | 3.78 | 9.38 | 1.17 | 1.64 | – | 7.83 | – | – | – | 4.3 | – | 3.32 | – | – | – | – | 2.45 | – | –
19 | COc1ccc(O)c(C#N)c1C#N | > 100 | > 100 | > 100 | > 100 | > 100 | – | – | – | – | – | > 100 | – | > 100 | – | – | – | – | > 100 | – | –
20 | CC(C)CC1=[N+]=C(NC#N)N=C(CCC(=O)Nc2ccccc2[N+](=O)[O-])C1 | > 100 | > 100 | > 100 | > 100 | > 100 | – | – | – | – | – | > 100 | – | > 100 | – | – | – | – | > 100 | – | –
21 | O=C1C2=C(c3ccccc31)C(c1ccccc1)NC(=S)N2 (centres undefined) | > 100 | 67.4 | > 100 | > 100 | > 100 | – | – | – | – | – | > 100 | – | > 100 | – | – | – | – | > 100 | – | –
22 | COc1nc2nccc-2c2occn12 | > 100 | > 100 | > 100 | > 100 | > 100 | – | – | – | – | – | > 100 | – | > 100 | – | – | – | – | > 100 | – | –
